Here are results for one compound from US9757357B2, “Photodynamic therapy or diagnostic agent, using infrared-spectrum light” (Tokyo Institute of Technology, priority 2011, dated 2017).

This experiment concerns MKN45 cells. Briefly: ALA-PDT using LNP under 980-nm NIR irradiation (MTT viability). The format is cell-based, Human. The method, then:
MKN45 cells were irradiated with NIR in the presence of ALA and LNP to confirm whether cell death occurred.
A medium in a 10-cm dish containing MKN45 cells cultured in a liquid medium (RPMI-1640, FBS(+), and PSN(+)) was aspirated, and the cells were washed with 3 ml of a PBS solution. 1 ml of trypsin was added thereto, and the mixture was incubated (37° C. and 5% CO2) for 5 minutes. The enzymatic reaction of trypsin was terminated by the addition of 5 ml of a fresh medium. A total of 6 ml of the reaction mixture was centrifuged at 1100 rpm for 5 minutes. In this procedure, 10 μl of the sample was mixed with a dye trypan blue, which dyes dead cells. The number of cells was counted using a hemacytometer. After the centrifugation, the supernatant was aspirated, and 2 ml of a fresh medium was added to the cells. The resulting cells were inoculated at a concentration of 100 μl/well (2×10^4 cells/well) to a 96-well plate for ALA concentrations 1000, 100, 10, and 0 μM and a blank. LNP(+) and LNP(−) series were prepared per sample, and these samples were divided into two different plates for NIR(+) and NIR(−). After overnight culture, the medium in each well was discarded. 100 μl of a fresh medium (containing 2.5 mg/ml LNP for the LNP(+) series) and 0.2 M ALA adjusted to the concentrations mentioned above were added to each well of the plates. After incubation for 4 hours, each plate was irradiated from 50 mm above with 980-nm NIR (400 mA) for 3 min/well. After overnight culture, the medium in each well was discarded, and the cells were washed with 100 μl of a PBS solution. 100 μl of a fresh medium and 10 μl of an MTT methanol solution diluted 10-fold with PBS were added to each well. After incubation for 4 hours, 10% SDS was added thereto at a concentration of 100 μl/well, and the mixture was incubated overnight. The absorbance was measured at 570 nm to 660 nm.
ALA-PDT was performed using commercially available LNP in the same way as in Example 4 except that the concentration of MKN45 cells was changed to 2×10^4 cells/well; the ALA concentrations were changed to 2000, 1000, 100, 10, and 0 μM; the culture time after addition of ALA was changed from 4 hours to 24 hours; and the NIR irradiation time was changed to 90 min/well.
ALA-PDT was performed using synthetic LNP in the same way as in Example 5 except that: the concentration of the synthetic LNP prepared in Example 6 was set to 2 mg/mL; and the ALA concentrations were changed to 2000, 1500, 1000, 100, and 0 μM.

In the case of `NCC(=O)CCC(=O)O` [ALA, 5-aminolevulinic acid], the cell viability result is “slight reduction in viability was confirmed” (Example 4, FIG. 4, LNP(−),NIR(+), ALA 0-1000 μM, 4 h, 980-nm NIR 3 min/well); “no change was observed in cell viability” (Example 4, FIG. 4, no NIR irradiation, ALA 0-1000 μM, 4 h, LNP(+) series 2.5 mg/ml and LNP(−) series); “no change was confirmed in cell viability” (Example 5, FIG. 5, LNP(−),NIR(+), ALA 0-2000 μM, 24 h, NIR 90 min/well); “no change was confirmed in cell viability” (Example 5, FIG. 5, no NIR irradiation, ALA 0-2000 μM, 24 h).
